# Laboratory results published in PubChem BioAssay AID328 (DTP/NCI, 2004).
# Where “and” joins values, the source holds several entries; their conditions need not be identical. Equal values may be shown once. Toxic doses and inconclusive results are not listed.
# System: BDF1 mice, P388 leukemia ip, median survival T/C
# Experiment: NCI In Vivo Anticancer Drug Screen. Data for tumor model P388 Leukemia (intraperitoneal) in B6D2F1 (BDF1) mice
# Conditions: endpoint: median survival time, higher = longer survival
# Outline: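 In tumour-bearing mice, survival after compound treatment is set against the vehicle group and given as a quotient.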
# [1] = dose: 25.0 mg/kg/injection, schedule: Q01DX009 (ip), vehicle: saline with Tween-80
# [2] = dose: 50.0 mg/kg/injection, schedule: Q01DX009 (ip), vehicle: saline with Tween-80
# [3] = dose: 100.0 mg/kg/injection, schedule: Q04DX003 (ip), vehicle: Klucel (hydroxypropylcellulose) (HPC)
# [4] = dose: 200.0 mg/kg/injection, schedule: Q04DX003 (ip), vehicle: Klucel (hydroxypropylcellulose) (HPC)
# [5] = dose: 400.0 mg/kg/injection, schedule: Q04DX003 (ip), vehicle: Klucel (hydroxypropylcellulose) (HPC)
# [6] = dose: 100.0 mg/kg/injection, schedule: Q04DX003 (ip), vehicle: saline with Tween-80
# [7] = dose: 200.0 mg/kg/injection, schedule: Q04DX003 (ip), vehicle: saline with Tween-80
# [8] = dose: 50.0 mg/kg/injection, schedule: Q01DX010 (ip), vehicle: saline
structure (smiles),measurement,setting,value
CCNc1nc(Cl)nc(-c2cn(-c3ccccc3)c3ccccc23)n1,T/C,"dose: 12.5 mg/kg/injection, schedule: Q01DX009 (ip), vehicle: Klucel (hydroxypropylcellulose) (HPC)",100 % of control
same,T/C,"dose: 25.0 mg/kg/injection, schedule: Q01DX009 (ip), vehicle: Klucel (hydroxypropylcellulose) (HPC)",91 % of control
same,T/C,"dose: 50.0 mg/kg/injection, schedule: Q01DX009 (ip), vehicle: Klucel (hydroxypropylcellulose) (HPC)",86 % of control
same,T/C,"dose: 100.0 mg/kg/injection, schedule: Q01DX009 (ip), vehicle: Klucel (hydroxypropylcellulose) (HPC)",91 % of control
CN(C)CC/C=C1\c2ccccc2Sc2ccc(C(F)(F)F)cc21,T/C,"dose: 9.2 mg/kg/injection, schedule: Q04DX003 (ip), vehicle: saline",112 % of control and 113 % of control
same,T/C,"dose: 21.0 mg/kg/injection, schedule: Q04DX003 (ip), vehicle: saline",116 % of control
same,T/C,"dose: 29.0 mg/kg/injection, schedule: Q04DX003 (ip), vehicle: saline",100 % of control
same,T/C,"dose: 65.0 mg/kg/injection, schedule: Q01DX001 (ip), vehicle: saline",122 % of control
CCCCCCCCCCCC(O)CCCCC (configuration not stated),T/C,"dose: 100.0 mg/kg/injection, schedule: Q01DX009 (ip), vehicle: other",120 % of control
same,T/C,"dose: 200.0 mg/kg/injection, schedule: Q01DX009 (ip), vehicle: other",115 % of control
same,T/C,"dose: 400.0 mg/kg/injection, schedule: Q01DX009 (ip), vehicle: other",115 % of control
Cc1ccc(S(=O)(=O)c2ccc([N+](=O)[O-])c3no[n+]([O-])c23)cc1,T/C,[1],104 % of control
same,T/C,[2],108 % of control
same,T/C,"dose: 100.0 mg/kg/injection, schedule: Q01DX009 (ip), vehicle: saline with Tween-80",116 % of control
CC1CC=CCC1COC(OCC1CC=CCC1C)C1CC=CCC1C (configuration not stated),T/C,"dose: 100.0 mg/kg/injection, schedule: Q04DX003 (ip), vehicle: other",104 % of control
same,T/C,"dose: 200.0 mg/kg/injection, schedule: Q04DX003 (ip), vehicle: other",114 % of control
same,T/C,"dose: 400.0 mg/kg/injection, schedule: Q04DX003 (ip), vehicle: other",119 % of control
CCOC(=O)N(CC)c1ccccc1,T/C,[3],90 % of control
same,T/C,[4],104 % of control
same,T/C,[5],100 % of control
CC(=N\O)/C(C)=N/O.CC(=N\O)/C(C)=N/O.[Br][Rh][Br],T/C,"dose: 25.0 mg/kg/injection, schedule: Q01DX009 (ip), vehicle: saline",99 % of control
same,T/C,"dose: 50.0 mg/kg/injection, schedule: Q01DX009 (ip), vehicle: saline",100 % of control
same,T/C,"dose: 100.0 mg/kg/injection, schedule: Q01DX009 (ip), vehicle: saline",119 % of control and 92 % of control
same,T/C,"dose: 200.0 mg/kg/injection, schedule: Q01DX009 (ip), vehicle: saline",110 % of control and 99 % of control and 100 % of control
same,T/C,"dose: 400.0 mg/kg/injection, schedule: Q01DX009 (ip), vehicle: saline",100 % of control
Cc1c(C=[N+]2CCCCC2)c2ccccc2n1C,T/C,"dose: 6.25 mg/kg/injection, schedule: Q01DX009 (ip), vehicle: saline with Tween-80",96 % of control
same,T/C,"dose: 12.5 mg/kg/injection, schedule: Q01DX009 (ip), vehicle: saline with Tween-80",105 % of control
same,T/C,[1],93 % of control
same,T/C,[2],99 % of control
[O]=[Sb]([c]1ccccc1)([c]1ccccc1)[c]1ccccc1,T/C,"dose: 25.0 mg/kg/injection, schedule: Q04DX003 (ip), vehicle: saline with Tween-80",106 % of control
same,T/C,"dose: 50.0 mg/kg/injection, schedule: Q04DX003 (ip), vehicle: saline with Tween-80",101 % of control
same,T/C,[6],114 % of control
CC(C)c1ncc(CCCN=C(N)N)[nH]c1=O,T/C,"dose: 37.5 mg/kg/injection, schedule: Q01DX009 (ip), vehicle: saline",98 % of control
same,T/C,"dose: 75.0 mg/kg/injection, schedule: Q01DX009 (ip), vehicle: saline",94 % of control
same,T/C,"dose: 150.0 mg/kg/injection, schedule: Q01DX009 (ip), vehicle: saline",90 % of control
N/C(=N\OS(=O)(=O)c1ccccc1)Oc1ccccc1,T/C,[6],97 % of control
same,T/C,[7],95 % of control
same,T/C,"dose: 400.0 mg/kg/injection, schedule: Q04DX003 (ip), vehicle: saline with Tween-80",99 % of control
Cc1ccc2ccccc2c1Cc1c(C=O)[nH]c(=S)[nH]c1=O,T/C,[6],104 % of control
same,T/C,[7],122 % of control
COc1cc(NS(C)(=O)=O)ccc1Nc1c2ccccc2nc2c(C)cccc12,T/C,"dose: 1.25 mg/kg/injection, schedule: Q01DX009 (ip), vehicle: Klucel (hydroxypropylcellulose) (HPC)",107 % of control
same,T/C,"dose: 2.5 mg/kg/injection, schedule: Q01DX009 (ip), vehicle: Klucel (hydroxypropylcellulose) (HPC)",201 % of control
same,T/C,"dose: 17.0 mg/kg/injection, schedule: Q04DX003 (ip), vehicle: gum acacia",250 % of control
same,T/C,"dose: 25.0 mg/kg/injection, schedule: Q04DX003 (ip), vehicle: gum acacia",250 % of control
COc1ccc(OC)c(/C=C/C(=O)c2ccc(Cl)cc2)c1,T/C,[3],104 % of control
same,T/C,[4],95 % of control
same,T/C,[5],104 % of control
CCc1ccc(C2=C(O)C(=O)C(c3ccccc3)=C(O)C2=O)cc1,T/C,"dose: 12.5 mg/kg/injection, schedule: Q01DX010 (ip), vehicle: saline",109 % of control
same,T/C,[8],159 % of control
Nc1ncnc2c1c(C(=O)O)cn2C1OC(CO)C(O)C1O (configuration not stated),T/C,"dose: 66.0 mg/kg/injection, schedule: Q04DX003 (ip), vehicle: saline with Tween-80",160 % of control
same,T/C,[6],150 % of control and 170 % of control
O=C1CSCC(=O)C1,T/C,"dose: 100.0 mg/kg/injection, schedule: Q04DX002 (ip), vehicle: saline with Tween-80",94 % of control
same,T/C,"dose: 200.0 mg/kg/injection, schedule: Q04DX002 (ip), vehicle: saline with Tween-80",96 % of control
same,T/C,"dose: 400.0 mg/kg/injection, schedule: Q04DX002 (ip), vehicle: saline with Tween-80",96 % of control
CC(=O)N1c2ccccc2C23CCN4CC5=CCOC(O)C(C5CC42)C13 (configuration not stated),T/C,"dose: 30.0 mg/kg/injection, schedule: Q01DX009 (ip), vehicle: saline",152 % of control
CCCCCCCCCCC(=O)[O][Sn]([CH](C)C)([CH](C)C)[CH](C)C,T/C,"dose: 12.5 mg/kg/injection, schedule: Q01DX009 (ip), vehicle: saline + Tween-80 + alcohol",109 % of control
same,T/C,"dose: 25.0 mg/kg/injection, schedule: Q01DX009 (ip), vehicle: saline + Tween-80 + alcohol",119 % of control
Nc1nc(N)c(-c2ccc(Cl)c(Cl)c2)c(COc2cccc(CNC(=O)c3cccc(S(=O)(=O)F)c3)c2)n1,T/C,"dose: 132.0 mg/kg/injection, schedule: Q04DX003 (ip), vehicle: Klucel (hydroxypropylcellulose) (HPC)",109 % of control
same,T/C,"dose: 200.0 mg/kg/injection, schedule: Q01DX009 (ip), vehicle: Klucel (hydroxypropylcellulose) (HPC)",150 % of control
same,T/C,[4],119 % of control
same,T/C,"dose: 300.0 mg/kg/injection, schedule: Q01DX009 (ip), vehicle: Klucel (hydroxypropylcellulose) (HPC)",155 % of control
COc1cc2c(cc1OC)[C@]13C[C@H](OC)CC=C1CCN3CCC2,T/C,"dose: 10.0 mg/kg/injection, schedule: Q01DX009 (ip), vehicle: alcohol",86 % of control
same,T/C,"dose: 20.0 mg/kg/injection, schedule: Q01DX009 (ip), vehicle: alcohol",100 % of control
same,T/C,"dose: 40.0 mg/kg/injection, schedule: Q01DX009 (ip), vehicle: alcohol",100 % of control
same,T/C,"dose: 80.0 mg/kg/injection, schedule: Q01DX009 (ip), vehicle: alcohol",95 % of control
CCOC(=O)CSc1cc(C)c2c(N)c(C(=O)OCC)sc2n1,T/C,"dose: 50.0 mg/kg/injection, schedule: Q01DX005 (ip), vehicle: saline with Tween-80",88 % of control
same,T/C,"dose: 100.0 mg/kg/injection, schedule: Q01DX005 (ip), vehicle: saline with Tween-80",91 % of control
same,T/C,"dose: 200.0 mg/kg/injection, schedule: Q01DX005 (ip), vehicle: saline with Tween-80",89 % of control
NC(=O)NCCCC(N)C(=O)O (configuration not stated),T/C,[8],94 % of control
same,T/C,"dose: 100.0 mg/kg/injection, schedule: Q01DX010 (ip), vehicle: saline",94 % of control
same,T/C,"dose: 200.0 mg/kg/injection, schedule: Q01DX010 (ip), vehicle: saline",89 % of control
Cn1cc(NC(=O)c2cc(NC(=O)c3cc(NC=O)cn3C)cn2C)cc1C(=O)NCCC(=N)N,T/C,"dose: 110.0 mg/kg/injection, schedule: Q04DX003 (ip), vehicle: Klucel (hydroxypropylcellulose) (HPC)",113 % of control
same,T/C,"dose: 170.0 mg/kg/injection, schedule: Q04DX003 (ip), vehicle: Klucel (hydroxypropylcellulose) (HPC)",109 % of control
same,T/C,"dose: 255.0 mg/kg/injection, schedule: Q04DX003 (ip), vehicle: Klucel (hydroxypropylcellulose) (HPC)",104 % of control
O=C(O)CC1(c2cccc3ccccc23)OC(=O)c2ccccc21 (configuration not stated),T/C,"dose: 100.0 mg/kg/injection, schedule: Q01DX001 (ip), vehicle: saline with Tween-80",112 % of control
same,T/C,"dose: 200.0 mg/kg/injection, schedule: Q01DX001 (ip), vehicle: saline with Tween-80",88 % of control
same,T/C,"dose: 400.0 mg/kg/injection, schedule: Q01DX001 (ip), vehicle: saline with Tween-80",97 % of control
